From US10766888B1, “HMOX1 inducers” (Mitobridge Inc., priority 2019, dated 2020)
Values after ≈ are worked out from the molar mass of the structure shown. Like-named read-outs stand apart in the source and are kept apart here.

Experiments:
[1] = tested on: Human Heme Oxygenase-1 (HMOX-1); experiment: ELISA assay to measure human heme oxygenase-1 (HMOX-1) in HepG2 lysate; format: cell-based
Summary of the method: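 HO-1 protein levels were read as fold change over DMSO-treated cells, with EC50 derived from these values. Quantitation used a chemiluminescent streptavidin-HRP capture ELISA, calibrated with an HO-1 standard series starting at 20 ng/ml, run at 20 °C. Samples were HepG2 lysates made with Triton X100/EDTA buffer and diluted 1:20.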

Kinetic solubility = format: physicochemical; conditions: Dulbecco's phosphate buffer saline (DPBS), aqueous buffer, kinetic from dmso stock, DPBS pH 7.4, 25° C., 200 μM test compound
Summary of the method: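 Compound from 10 mM DMSO stock diluted to 200 μM final in DPBS pH 7.4 and, separately, in DMSO, in duplicate. Shaken 16 h at 25 °C, then centrifuged 20 min at 25 °C. Supernatant analysed by HPLC.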

[2] = PK study: plasma and brain levels in mice; format: in vivo; conditions: male C57BL/6 mice, 50 mg/kg oral; for concentration at 0.5 h / concentration at 4 h: mouse; for concentration at 0.5 h: 0.5 hr post dosing; for concentration at 4 h: 4 hr post dosing
Experimental: 9-10 week old male C57BL/6 mice were dosed orally with 50 mg/kg of the test compound formulated in 5% w/v tween 80 and 0.5% methyl cellulose. At 0.5 and 4 h post dosing, whole blood was collected, animals were sacrificed and brain tissues were collected. The blood samples were immediately placed on ice, and centrifuged within 60 min at 4° C. for 3 min at 14000 rpm to obtain plasma. Plasma was transferred by pipette to pre-labeled Eppendorf tubes, stored at −80° C. until analyzed.
Brain tissue samples were collected and rinsed with fresh ice cold 0.9% NaCl solution, dried quickly and thereafter frozen on dry ice/liquid nitrogen and stored at −70±10° C. until analyzed. Homogenization was done using phosphate buffer saline and used for analysis. Bioanalysis was performed using LC-MS/MS (API 4000).

[3] = human HMOX1 protein level in HepG2 lysate, * = average of 2 or more EC50 determinations, NA = Not Active, read-out: EC50
[4] = brain, read-out: Brain (ng/g) 0.5 hr
[5] = plasma, read-out: Plasma (ng/ml) 0.5 hr
[6] = plasma, read-out: Plasma (ng/ml) 4 hr

For `COCCNC(=O)c1ccc2c(c1)nc(Nc1nc3ccc(OCCOC)cc3o1)n2C` [Example 56, 2-((6-(2-methoxyethoxy)benzo[d]oxazol-2-yl)amino)-N-(2-methoxyethyl)-1-methyl-1H-benzo[d]imidazole-5-carboxamide], the EC50 [1, 3] was 1400 nM, the solubility at 16 h (Kinetic solubility) was 9.7 µM (≈ 4.26 µg/mL) and the “brain penetration (in words)” value [2] was “good brain penetration”. For the same compound, the concentration at 0.5 h [2, 4] was 4230 ± 600 ng/g, the concentration at 4 h ([2]; brain, read-out: Brain (ng/g) 4 hr) was 122 ± 153 ng/g and the concentration at 0.5 h [2, 5] was 4240 ± 428 ng/mL. For the same compound, the concentration at 4 h [2, 6] was 281 ± 318 ng/mL.

Compound `Cn1c(Nc2nc3ccccc3o2)nc2cc(C(=O)NCCOCCO)ccc21` [Example 17, 2-(benzo[d]oxazol-2-ylamino)-N-(2-(2-hydroxyethoxy)ethyl)-1-methyl-1H-benzo[d]imidazole-5-carboxamide] has an EC50 ([1]; HepG2, human HMOX1, as listed in Table 5, read-out: HMOX1 EC50 h) of 1400 nM, an EC50 [1, 3] of 1400 nM and a solubility at 16 h (Kinetic solubility) of 11.6 µM (≈ 4.59 µg/mL). The concentration at 0.5 h [2, 4] was 188 ± 83 ng/g, the concentration at 0.5 h [2, 5] was 4240 ± 771 ng/mL and the concentration at 4 h [2, 6] was 72 ± 38 ng/mL.
